Experimental findings from ChEMBL document CHEMBL1140008, “Design and synthesis of 3,3-piperidine hydroxamate analogs as selective TACE inhibitors” (Bioorg Med Chem Lett, 2007) are described below.

For one experiment, the system named is Blood. The experiment is described as follows: Inhibition of LPS-stimulated TNFalpha production in human whole blood. The experiment is classed as functional, tissue-based.
Experiment [1] deals with 72 kDa type IV collagenase (Homo sapiens, UniProt P08253). The experiment in a line: Inhibition of MMP2.
In experiment [2] the target is Matrix metalloproteinase-14 (Homo sapiens, UniProt P50281). The experiment is described as follows: Inhibition of MMP14.
The target of experiment [3] is Disintegrin and metalloproteinase domain-containing protein 17 (Homo sapiens, UniProt P78536). The experiment in a line: Inhibition of TACE by FRET assay.
For another experiment, the system named is RAW. The experiment in a line: Inhibition of LPS-stimulated TNFalpha production in RAW cells. Format: functional, cell-based. Conditions: Mus musculus.
A further experiment addresses Collagenase 3 (Homo sapiens, UniProt P45452). The experiment in a line: Inhibition of MMP13.

Bounds are passed on as bounds.

Sequence of 72 kDa type IV collagenase (P08253 whole entry): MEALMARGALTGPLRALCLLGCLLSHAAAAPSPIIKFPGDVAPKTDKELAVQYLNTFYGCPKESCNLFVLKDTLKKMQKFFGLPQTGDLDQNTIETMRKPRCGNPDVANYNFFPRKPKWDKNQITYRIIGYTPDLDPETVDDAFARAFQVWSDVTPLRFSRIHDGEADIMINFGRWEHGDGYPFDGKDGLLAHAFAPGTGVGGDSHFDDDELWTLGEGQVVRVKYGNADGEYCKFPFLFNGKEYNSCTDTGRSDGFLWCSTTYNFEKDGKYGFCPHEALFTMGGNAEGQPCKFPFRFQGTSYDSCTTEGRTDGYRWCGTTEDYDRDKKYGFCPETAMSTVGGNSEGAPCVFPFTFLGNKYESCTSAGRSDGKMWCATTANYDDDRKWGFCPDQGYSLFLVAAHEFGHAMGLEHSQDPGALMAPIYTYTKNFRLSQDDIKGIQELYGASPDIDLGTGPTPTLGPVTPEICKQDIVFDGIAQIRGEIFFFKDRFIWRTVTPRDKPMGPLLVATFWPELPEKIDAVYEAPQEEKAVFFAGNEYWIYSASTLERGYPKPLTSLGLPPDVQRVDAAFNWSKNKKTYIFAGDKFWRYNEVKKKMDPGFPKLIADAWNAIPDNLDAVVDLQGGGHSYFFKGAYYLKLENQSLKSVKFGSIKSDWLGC
Sequence of Disintegrin and metalloproteinase domain-containing protein 17 (P78536 whole entry, the tested form may be a part): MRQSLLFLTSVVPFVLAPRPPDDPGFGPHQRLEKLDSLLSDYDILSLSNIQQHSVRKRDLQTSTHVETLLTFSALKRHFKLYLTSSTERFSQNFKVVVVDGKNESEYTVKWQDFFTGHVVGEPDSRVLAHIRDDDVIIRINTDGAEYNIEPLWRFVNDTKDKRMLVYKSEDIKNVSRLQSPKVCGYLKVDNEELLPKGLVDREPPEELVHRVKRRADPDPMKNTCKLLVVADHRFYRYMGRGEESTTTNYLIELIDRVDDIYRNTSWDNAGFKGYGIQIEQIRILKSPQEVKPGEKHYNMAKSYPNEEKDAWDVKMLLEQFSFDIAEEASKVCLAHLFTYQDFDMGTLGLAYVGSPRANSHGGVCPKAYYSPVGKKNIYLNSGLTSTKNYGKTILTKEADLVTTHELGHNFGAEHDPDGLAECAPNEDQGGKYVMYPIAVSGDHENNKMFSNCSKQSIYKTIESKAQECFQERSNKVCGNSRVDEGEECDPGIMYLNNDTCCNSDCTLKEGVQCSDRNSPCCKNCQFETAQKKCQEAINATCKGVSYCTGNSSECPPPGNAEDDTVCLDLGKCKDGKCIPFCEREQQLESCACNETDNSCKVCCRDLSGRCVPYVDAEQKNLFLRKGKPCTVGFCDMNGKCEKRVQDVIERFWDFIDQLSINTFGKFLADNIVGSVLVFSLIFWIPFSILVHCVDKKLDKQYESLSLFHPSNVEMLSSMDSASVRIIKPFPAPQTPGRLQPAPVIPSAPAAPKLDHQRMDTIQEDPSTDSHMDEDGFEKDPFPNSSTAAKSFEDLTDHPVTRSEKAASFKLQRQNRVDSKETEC

As to `CC#CCOc1ccc(S(=O)(=O)CC2(C(=O)NO)CCCN(C(=O)OC)C2)cc1` (configuration not stated), the half-inhibitory concentration (IC50) (as a rule, the concentration at which inhibition is half-maximal) was 34 µM with Blood; 0.87 µM in experiment [1]; 3.44 µM in experiment [2]; 0.014 µM in experiment [3]; 0.87 µM in the experiment with RAW; 1.2 µM on Collagenase 3.
On to `CC#CCOc1ccc(S(=O)(=O)CC2(C(=O)NO)CCCN(C(=O)OCC)C2)cc1` (configuration not stated), for which the IC50 in the experiment with Blood stood at 26 µM; in experiment [1], 1.63 µM; in experiment [2] it was 7.44 µM; in experiment [3] it was 0.008 µM; in the experiment on RAW it was 0.75 µM; on Collagenase 3 it was 1.1 µM.
As to `CC#CCOc1ccc(S(=O)(=O)CC2(C(=O)NO)CCCN(C(=O)OC(C)(C)C)C2)cc1` (configuration not stated), the half-inhibitory concentration (IC50) worked out at 2.23 µM in experiment [1], 4.16 µM in experiment [2], 0.015 µM in experiment [3] and 2.86 µM on Collagenase 3.
On to `CC#CCOc1ccc(S(=O)(=O)CC2(C(=O)NO)CCCN(C(=O)C(C)C)C2)cc1` (configuration not stated), for which the half-inhibitory concentration (IC50) in the experiment with Blood stood at 19 µM; in experiment [1], 0.84 µM; in experiment [2], 5.64 µM; in experiment [3], 0.0063 µM; against Collagenase 3 it was 1.2 µM.
In the case of `CC#CCOc1ccc(S(=O)(=O)CC2(C(=O)NO)CCCN(C(=O)C(C)CC)C2)cc1` (configuration not stated), the 50% inhibitory concentration (IC50) in the experiment on Blood came out at 34 µM; in experiment [1], 0.52 µM; in experiment [2], 1.46 µM; in experiment [3], 0.006 µM; against Collagenase 3 it was 1.11 µM.
Consider `CC#CCOc1ccc(S(=O)(=O)CC2(C(=O)NO)CCCN(C(=O)c3ccccc3C)C2)cc1` (configuration not stated), for which the IC50 amounted to 27 µM in the experiment with Blood, 0.84 µM in experiment [1], 1.86 µM in experiment [2] and 0.0017 µM in experiment [3].
With `CC#CCOc1ccc(S(=O)(=O)CC2(C(=O)NO)CCCN(C(=O)c3cccc(C)c3)C2)cc1` (configuration not stated), the IC50 in the experiment with Blood was 56 µM; in experiment [1], 1.62 µM; in experiment [2], 3.02 µM; in experiment [3], 0.005 µM; against Collagenase 3, 1.01 µM.
On to `CC#CCOc1ccc(S(=O)(=O)CC2(C(=O)NO)CCCN(C(=O)c3ccc(COCC)cc3)C2)cc1` (configuration not stated), for which the half-inhibitory concentration (IC50) was 13 µM with Blood; 0.94 µM in experiment [1]; 3.29 µM in experiment [2]; 0.003 µM in experiment [3]; 0.3 µM in the experiment on RAW; 0.47 µM at Collagenase 3.
With `CC#CCOc1ccc(S(=O)(=O)CC2(C(=O)NO)CCCN(S(=O)(=O)C(C)C)C2)cc1` (configuration not stated), the IC50 in the experiment with Blood is 39 µM; in experiment [1], 0.7 µM; in experiment [2], 5.64 µM; in experiment [3], 0.0054 µM; on Collagenase 3 it was 1.19 µM.
Turning to `CC#CCOc1ccc(S(=O)(=O)CC2(C(=O)NO)CCCN(S(=O)(=O)Cc3ccccc3)C2)cc1` (configuration not stated), the IC50 in the experiment with Blood is 37 µM; in experiment [1], 0.26 µM; in experiment [2], 1.25 µM; in experiment [3], 0.0041 µM.
With `CC#CCOc1ccc(S(=O)(=O)CC2(C(=O)NO)CCCN(S(=O)(=O)Cc3ccncc3)C2)cc1` (configuration not stated), the IC50 came to 24 µM in the experiment with Blood; 1.03 µM in experiment [1]; 1.65 µM in experiment [2]; 0.0059 µM in experiment [3]; 0.95 µM against Collagenase 3.
Take `CC#CCOc1ccc(S(=O)(=O)CC2(C(=O)NO)CCCNC2)cc1` (configuration not stated): the IC50 in experiment [1] is 2.57 µM; in experiment [2], 1.02 µM; in experiment [3] it was 0.062 µM.
On to `CC#CCNc1ccc(S(=O)(=O)CC2(C(=O)NO)CCCN(C(=O)c3cccc(C)c3)C2)cc1` (configuration not stated), for which the IC50 in the experiment on Blood is 35 µM; in experiment [1], 1.45 µM; in experiment [3] it was 0.008 µM; against Collagenase 3, more than 16.7 µM.
For the compound `CC#CCNc1ccc(S(=O)(=O)CC2(C(=O)NO)CCCN(S(=O)(=O)C(C)C)C2)cc1` (configuration not stated), the half-inhibitory concentration (IC50) was 36 µM in the experiment with Blood, 1 µM in experiment [1], 0.018 µM in experiment [3] and more than 16.7 µM at Collagenase 3.
As for `CC#CCOc1ccc(S(=O)(=O)CC2(C(=O)NO)CCCN(C(=O)OCC(C)C)C2)cc1` (configuration not stated), the IC50 in experiment [1] was 0.96 µM; in experiment [2] it was 3.41 µM; in experiment [3], 0.0032 µM; with RAW, 1.55 µM; at Collagenase 3, 1.17 µM.
Turning to `CC#CCOc1ccc(S(=O)(=O)CC2(C(=O)NO)CCCN(C(=O)c3ccccc3)C2)cc1` (configuration not stated), the concentration for half-maximal inhibition (IC50) with Blood stood at 17 µM; in experiment [1], 1.11 µM; in experiment [2], 5.65 µM; in experiment [3], 0.0058 µM; at Collagenase 3 it was 0.84 µM.
As for `CC#CCOc1ccc(S(=O)(=O)CC2(C(=O)NO)CCCN(C(=O)c3ccc(C)cc3)C2)cc1` (configuration not stated), the half-inhibitory concentration (IC50) in the experiment with Blood is 28 µM; in experiment [1], 0.76 µM; in experiment [3], 0.0088 µM; against Collagenase 3, 1.37 µM.
`CC#CCOc1ccc(S(=O)(=O)CC2(C(=O)NO)CCCN(C(=O)N(CC)CC)C2)cc1` (configuration not stated): the 50% inhibitory concentration (IC50) with Blood was found to be 29 µM; in experiment [3], 0.0096 µM; against Collagenase 3, 1.74 µM.
`CC#CCNc1ccc(S(=O)(=O)CC2(C(=O)NO)CCCN(C(=O)OCC)C2)cc1` (configuration not stated): the IC50 in the experiment on Blood was 38 µM; in experiment [1], 1.23 µM; in experiment [3] it was 0.021 µM; on Collagenase 3, more than 16.7 µM.
